Test results as given in publication PMC11943950, “Characterization of Flexusin A, a Novel Circular Bacteriocin Produced by Marine Bacterium Bacillus flexus R29-2” (Marine Drugs, 2025).
In brackets after ≈: the same amount, converted by molar mass. Read-outs that look alike come from different tables or passages of the source.

How the values were obtained:
S. aureus ATCC 6538 = test: microbe, parasite or virus in culture; format: cell-based, Staphylococcus aureus
Experimental: (§1) An array of indicator strains (S. aureus ATCC 6538, E. faecalis CICC 21605, E. faecium CICC 10004 and L. monocytogenes ATCC 19115) were used to determine the MIC of flexusin A by the methods, as reported. […] The purified powder of flexusin A was reconstituted at 256 μg/mL to serve as the stock solution. It was then used for the antibacterial activity assay over a range of 256, 128, 64, 32, 16, 8, 4, 2, 1, 0.5, 0.25, and 0.125 μg/mL. The protein concentration of the flexusin A stock solution was determined by the BCA method (BCA Protein Assay Kit, Sangon Biotech)”. Water was used as a negative control, whereas ampicillin (Solarbio, Beijing, China) was used as positive control. All assays were performed in triplicate. MIC was defined as the lowest concentration of flexusin A that inhibited indicator growth, as no visible microbial growth was observed.

E. faecalis CICC 21605 = test: microbe, parasite or virus in culture; format: cell-based, Enterococcus faecalis
Experimental: as §1

E. faecium CICC 10004 = test: MIC by broth microdilution; format: cell-based; settings: Enterococcus faecium, CICC10004, 96-well, approximately 1 × 10^6 CFU/mL, 37 °C, 24 h, no visible growth, triplicate
Experimental: as §1

[1] = test system: L. monocytogenes ATCC 19115; test: microbe, parasite or virus in culture; format: cell-based, Listeria monocytogenes
Experimental: as §1

chymotrypsin = chymotrypsin (Bos taurus, UniProt P00766); settings: chymotrypsin 1 mg/mL, 25 mM phosphate buffer pH 7.0, 37 °C for 4 h; residual antimicrobial activity, spot-on-lawn bioassay
Experimental: (§2) The HPLC purified bacteriocin samples were made readily soluble in neutral water, and the stock solution was then tested for sensitivity to heat, pH changes, and degradative enzymes. The qualitative spot-on-lawn bioassay was used to monitor changes in antimicrobial potency after treatments mentioned. For thermal stability testing, aliquots of the HPLC-purified peptide samples were exposed to 30 °C, 40 °C, 50 °C, 60 °C, 70 °C, 80 °C, 90 °C, and 100 °C for 30 min, respectively. For the pH stability test, aliquots of the stock solutions were adjusted to pH 2.0, 3.0, 4.0, 5.0, 6.0, 7.0, 8.0, and 9.0, followed by incubation at 25 °C for 2 h.
(§3) Sensitivity to various degradative enzymes was determined using trypsin, papain, pepsin, chymotrypsin, and protease K at a final concentration of 1 mg/mL, respectively. All enzymes were purchased from Sigma, and their solutions were prepared in 25 mM phosphate buffer, pH 7.0 (pepsin, pH = 2.0). Solutions of the antimicrobial peptide were prepared in the same sterile buffer. After mixing the enzymatic reaction solutions were incubated at 37 °C for 4 h before residual antimicrobial activity measurement.

pepsin = pepsin (Sus scrofa, UniProt P00791); settings: pepsin 1 mg/mL, 25 mM phosphate buffer pH 2.0, 37 °C for 4 h; residual antimicrobial activity, spot-on-lawn bioassay
Experimental: as §2, §3

protease K = protease K (Parengyodontium album, UniProt P06873); settings: protease K 1 mg/mL, 25 mM phosphate buffer pH 7.0, 37 °C for 4 h; residual antimicrobial activity, spot-on-lawn bioassay
Experimental: as §2, §3

trypsin = trypsin 1 mg/mL, 25 mM phosphate buffer pH 7.0, 37 °C for 4 h; residual antimicrobial activity, spot-on-lawn bioassay
Experimental: as §2, §3

[2] = HPLC purified sample, neutral water; qualitative
Experimental: as §2

[3] = pH range from 2.0 to 10.0 (method: pH 2.0-9.0), 25 °C for 2 h; read-out qualitative spot-on-lawn bioassay
[4] = treated for 30 min from 20 to 100 °C (method: 30-100 °C); read-out qualitative spot-on-lawn bioassay

Chain of pepsin (P00791 60-385): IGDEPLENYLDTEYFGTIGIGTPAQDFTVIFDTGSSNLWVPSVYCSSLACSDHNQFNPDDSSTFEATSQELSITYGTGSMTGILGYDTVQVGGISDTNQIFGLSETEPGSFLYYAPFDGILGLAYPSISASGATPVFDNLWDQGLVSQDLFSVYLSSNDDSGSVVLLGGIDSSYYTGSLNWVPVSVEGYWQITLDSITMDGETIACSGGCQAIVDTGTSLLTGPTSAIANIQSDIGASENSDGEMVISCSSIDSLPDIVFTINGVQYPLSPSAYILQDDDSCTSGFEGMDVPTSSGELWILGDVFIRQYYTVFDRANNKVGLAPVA
Chain of protease K (P06873 106-384): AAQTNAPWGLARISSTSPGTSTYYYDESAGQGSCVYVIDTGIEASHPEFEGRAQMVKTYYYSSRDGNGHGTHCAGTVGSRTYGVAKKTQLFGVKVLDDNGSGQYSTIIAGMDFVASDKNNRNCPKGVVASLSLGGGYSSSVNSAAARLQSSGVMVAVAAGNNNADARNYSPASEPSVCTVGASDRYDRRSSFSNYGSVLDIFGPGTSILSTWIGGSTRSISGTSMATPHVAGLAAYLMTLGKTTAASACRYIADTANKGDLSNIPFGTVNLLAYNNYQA

Q: Which MIC (S. aureus ATCC 6538; Staphylococcus aureus, ATCC6538, S. aureus ATCC 6538, broth microdilution, 96-well, approximately 1 × 10^6 CFU/mL, 37 °C, 24 h, no visible growth, triplicate, read-out: MIC) does the source give for `CC1(C)S[C@@H]2[C@H](NC(=O)[C@H](N)c3ccccc3)C(=O)N2[C@H]1C(=O)O` [Amp, ampicillin, reference compound] here?
A: The MIC was 0.4 µg/mL (≈ 1.14 µM).

Q: And the MIC (E. faecalis CICC 21605; Enterococcus faecalis, CICC21605, E. faecalis CICC 21605, broth microdilution, 96-well, approximately 1 × 10^6 CFU/mL, 37 °C, 24 h, no visible growth, triplicate, read-out: MIC)?
A: Its MIC is greater than 51.2 µg/mL.

Q: And the MIC (E. faecium CICC 10004)?
A: The MIC was 1.6 µg/mL (≈ 4.58 µM).

Q: And the MIC ([1]; Listeria monocytogenes, ATCC19115, L. monocytogenes ATCC 19115, broth microdilution, 96-well, approximately 1 × 10^6 CFU/mL, 37 °C, 24 h, no visible growth, triplicate, read-out: MIC)?
A: Its MIC is 0.0625 µg/mL (≈ 0.179 µM).

Q: Which results are given for “cyclo(AGALGISEYWANVIVTAIEAGSTVLALISMFASFGLTSALILTAKSLLKKGAKKTAVAYI) [flexusin A]”?
A: MIC (S. aureus ATCC 6538; ATCC 6538, 24 h): 1 µg/mL; MIC (E. faecalis CICC 21605; CICC 21605, 24 h): 16 µg/mL; MIC ([1]; ATCC 19115, 24 h): 2 µg/mL; Resistance to chymotrypsin (remaining activity) (chymotrypsin): sensitive; Resistance to pepsin (remaining activity) (pepsin): tolerant; Resistance to protease K (remaining activity) (protease K): sensitive; Resistance to trypsin (remaining activity) (trypsin): tolerant; Solubility in water [2]: water soluble; pH stability (remaining activity) [3]: stable; Thermal stability (remaining activity) [4]: decent thermal stability
